Experimental data as given in patent EP4775567A1, “IONIZABLE CATIONIC LIPID COMPOUNDS AS WELL AS PREPARATION METHOD THEREFOR AND USE THEREOF” (Scindy Pharmaceutical (Suzhou) Co., Ltd, priority 2023, dated 2025).

Legend:
[1] = Apparent pKa of blank lipid nanoparticles by TNS fluorescence; format: physicochemical; details: compound:DSPC:cholesterol:ALC-0159 50:10:38.5:1.5, pH 2 to 11
Description: The apparent pKa of lipid nanoparticles is correlated with the efficacy of lipid nanoparticles in delivering nucleic acids (see Jayaraman et al., Angewandte Chemie, International Edition (2012), 51(34), 8529-8533; Semple et al., Nature Biotechnology 28, 172-176 (2010)). The apparent pKa of nanoparticles prepared from different lipid compounds was determined using fluorescence based on 2-(p-toluidino)-6-naphthalenesulfonic acid (TNS). The fluorescent probe has no fluorescence in water but […] emits fluorescence when bound to lipid membranes. Blank lipid nanoparticles were prepared at a molar ratio of ionizable cationic lipid compound (each exemplary compound) : DSPC : cholesterol : 2-[(polyethylene glycol)-2000]-N,N-ditetradecylacetamide (ALC-0159) of 50:10:38.5:1.5. They were diluted in different pH buffer solutions having a pH ranging from 2 to 11. An aqueous TNS solution was added and mixed. Then, the mixtures were added to a 96-well plate (black bottom), respectively. Detection was performed with excitation wavelength at 325 nm and the emission wavelength at 435 nm, with top detection. Measurement was performed 10 times for each well, and the fluorescence intensity was recorded. A pH-fluorescence intensity curve was plotted to determine the apparent pKa.

[2] = Particle size and polydispersity index (PDI) by dynamic light scattering; format: physicochemical; details: luciferase mRNA lipid nanoparticles prepared from the compound; 25°C
Description: (§1) Luciferase mRNA was diluted in a 10-100 mM sodium citrate buffer solution at pH 4.0, with the concentration of the mRNA solution being 135 µg/ml. A mixed lipid ethanol solution was prepared at a molar ratio of ionizable cationic lipid compound (each exemplary compound) : DSPC: cholesterol : 2-[(polyethylene glycol)-2000]-N,N-ditetradecylacetamide (ALC-0159) of 50:10:38.5:1.5. The mRNA solution and the mixed lipid solution were mixed at a volume ratio of 3:1 in a nanodrug preparation device, followed by ultrafiltration to obtain luciferase mRNA lipid nanoparticles.
(§2) • 1. Determination of particle size and polydispersity index (PDI): The average particle size and PDI of the nanoparticle sample solutions in the examples were determined by dynamic light scattering using Malvern ZetaSizer Nano ZS90. The measurement angle was 90°, the refractive index of the dispersant was 1.330, and the test temperature was 25°C. • 2. Zeta potential: The Zeta potential of the nanoparticle sample solutions in the examples was determined by electrophoretic light scattering (ELS) using Malvern ZetaSizer Nano ZS90. Refractive index of the dispersant: 1.330, Test temperature: 25°C. • 3. Encapsulation Rate: The Encapsulation Rate of luciferase mRNA in lipid nanoparticles was determined using a Quant-it Ribogreen RNA quantitation kit (ThermoFisher Scientific, UK) in accordance with the manufacturer's instructions.

[3] = Zeta potential by electrophoretic light scattering; format: physicochemical; details: luciferase mRNA lipid nanoparticles prepared from the compound; 25°C
Description: as §1, §2

[4] = Encapsulation Rate of luciferase mRNA in lipid nanoparticles (Quant-it Ribogreen RNA kit); format: physicochemical; details: luciferase mRNA in lipid nanoparticles prepared from the compound
Description: as §1, §2

HEK 293T cells = test: In vitro transfection efficiency of luciferase mRNA lipid nanoparticles (luciferase activity); format: cell-based; details: for HEK 293T Cell Luciferase Activity: 100 ng dose, 96-well plate, 24 h incubation, luciferase mRNA lipid nanoparticles
Description: as §1
HEK-293T cells were used to evaluate the in vitro transfection efficiency of lipid nanoparticle compositions prepared from each exemplary compound. HEK293T cells were routinely cultured in DMEM + 10% FBS medium to ensure the cells were in the logarithmic growth phase. One day before transfection, the cells were seeded into a 96-well culture plate at an appropriate cell density and grown overnight. At the time of transfection, the cell confluency needed to reach 70-90%. The lipid nanoparticle compositions prepared from each exemplary compound were diluted into 4 different dose concentrations with DMEM and added to the 96-well cell culture plate, resulting in final concentrations of 400 ng, 200 ng, 100 ng and 50 ng per well, respectively. luciferase plasmid transfected using Lipofectamine 2000 was used as the positive control (PC). After incubation for 24 h in a 5% CO2 incubator at 37°C, the substrate was added to the wells, and the luciferase activity was determined using a microplate reader. […] The luciferase activity of the luciferase mRNA lipid nanoparticles prepared from Compound 1005 in HEK293T cells is shown in Fig. 1.

female Balb/c mice = test: In vivo transfection efficiency and safety of luciferase mRNA lipid nanoparticles (whole-body live imaging); details: tail vein injection, single dose 0.3 mpk, 6 h after administration
Description: as §1
6-8 week-old female Balb/c mice were used to evaluate the in vivo transfection efficiency and safety of lipid nanoparticle compositions prepared from each exemplary compound. The lipid nanoparticles prepared from each exemplary compound were administered by tail vein injection at a single dose of 0.3 mpk. At specific time points after administration (e.g., 3 h, 6 h), live imaging of the animals was performed using a PerkinElmer small animal imaging system to determine the bioluminescent signal. The whole-body live imaging of mice at 3 h/6 h after intravenous administration of luciferase mRNA lipid nanoparticles prepared from Compound 1008 is shown in Fig. 2. […] Table 3 Summary of in vitro/in vivo Activity Evaluation of Lipid Nanoparticles Prepared from Compounds

SMILES | Apparent pKa [1] | Particle Size [2] | Polydispersity Index (PDI) [2] | Zeta Potential [3] | Encapsulation Rate [4] | HEK 293T Cell Luciferase Activity (HEK 293T cells) | fluorescence intensity of luciferase expressed in HEK 293T cells (HEK 293T cells; different doses (50-400 ng per well), Fig. 1) | Mouse Whole-Body Average Fluorescence Signal (female Balb/c mice)
CCCCCCCCCCCCCCCC(CC)C(=O)OCC(COC(=O)C(CC)CCCCCCCCCCCCCCC)(COC(=O)C(CC)CCCCCCCCCCCCCCC)NCCC(=O)NCCN(C)C (centres unmarked) [Compound 1005] | 6.10 | 55.44 nm | 0.076 | -0.105 mV | 91.7% | 1.01×10^8 RLU | > 10^7 RLU | 1.21×10^6 p/s/cm^2/sr
CCCCCCCCCCCC(CCCCCC)C(=O)OCC(COC(=O)C(CCCCCC)CCCCCCCCCCC)(COC(=O)C(CCCCCC)CCCCCCCCCCC)NCCC(=O)NCCN(C)C (centres unmarked) [Compound 1007] | 5.13 | 85.78 nm | 0.068 | -4.98 mV | 95.9% | 1.60×10^5 RLU | – | 1.34×10^6 p/s/cm^2/sr
CCCCCCCCCC(CCCCCCCC)C(=O)OCC(COC(=O)C(CCCCCCCC)CCCCCCCCC)(COC(=O)C(CCCCCCCC)CCCCCCCCC)NCCC(=O)NCCN(C)C (centres unmarked) [Compound 1008] | 6.14 | 73.49 nm | 0.019 | -6.06 mV | 95.1% | 1.86×10^6 RLU | – | 7.66×10^5 p/s/cm^2/sr
CCCCCCCCCCCCCC(CC)C(=O)OCC(COC(=O)C(CC)CCCCCCCCCCCCC)(COC(=O)C(CC)CCCCCCCCCCCCC)NCCC(=O)NCCN(C)C (centres unmarked) [Compound 1009] | 5.23 | 67.63 nm | 0.126 | 2.60 mV | 92.7% | 6.15×10^7 RLU | – | 5.99×10^4 p/s/cm^2/sr
CCCCCCCCCCCCCCCC(CC)C(=O)OCC(COC(=O)C(CC)CCCCCCCCCCCCCCC)(COC(=O)C(CC)CCCCCCCCCCCCCCC)NCCC(=O)NCCN(CC)CC (centres unmarked) [Compound 1011] | 6.30 | 60.38 nm | 0.193 | 2.31 mV | 91.8% | 8.22×10^7 RLU | – | 1.29×10^5 p/s/cm^2/sr
CCCCCCCCCCCCCCCC(CC)C(=O)OCC(COC(=O)C(CC)CCCCCCCCCCCCCCC)(COC(=O)C(CC)CCCCCCCCCCCCCCC)NCCC(=O)NCCN(CCC)CCC (centres unmarked) [Compound 1012] | 6.05 | 80.07 nm | 0.051 | 0.811 mV | 87.4% | 6.61×10^5 RLU | – | 2.02×10^5 p/s/cm^2/sr
CCCCCCCCCCCCCCCC(CC)C(=O)OCC(COC(=O)C(CC)CCCCCCCCCCCCCCC)(COC(=O)C(CC)CCCCCCCCCCCCCCC)NCCC(=O)NCCN(CCCC)CCCC (centres unmarked) [Compound 1013] | 5.75 | 82.41 nm | 0.123 | -2.23 mV | 90.7% | 9.87×10^4 RLU | – | 1.69×10^4 p/s/cm^2/sr
CCCCCCCCCC(CCCCCCCC)C(=O)OCC(COC(=O)C(CCCCCCCC)CCCCCCCCC)(COC(=O)C(CCCCCCCC)CCCCCCCCC)NC(=O)CNCCN(C)CCCCO (centres unmarked) [Compound 3423] | – | 87.5 nm | 0.086 | -18.6 mV | 96.0% | 3.97×10^5 RLU | – | 5.53×10^5 p/s/cm^2/sr
CCCCCCCCCCCCCCCC(CC)C(=O)OCC(COC(=O)C(CC)CCCCCCCCCCCCCCC)(COC(=O)C(CC)CCCCCCCCCCCCCCC)NCCN(C)CCCCO (centres unmarked) [Compound 3424] | – | 94.71 nm | 0.115 | -0.327 mV | 88.9% | 1.81×10^4 RLU | – | 9.34×10^4 p/s/cm^2/sr
CCCCCCCCCCCCCCCC(CC)C(=O)OCC(COC(=O)C(CC)CCCCCCCCCCCCCCC)(COC(=O)C(CC)CCCCCCCCCCCCCCC)NCCCCCCN(C)CCCCO (centres unmarked) [Compound 3426] | – | 85.51 nm | 0.104 | 2.23 mV | 95.5% | 3.01×10^5 RLU | – | 5.67×10^6 p/s/cm^2/sr
CCCCCCCCCCCCCCCC(CC)C(=O)OCC(COC(=O)C(CC)CCCCCCCCCCCCCCC)(COC(=O)C(CC)CCCCCCCCCCCCCCC)NC(=O)CNCCN(C)CCCCO (centres unmarked) [Compound 3427] | – | 70.81 nm | 0.126 | 3.8 mV | 96.1% | 5.18×10^5 RLU | – | 8.24×10^6 p/s/cm^2/sr
CCCCCCCCCC(CCCCCCCC)C(=O)OCC(COC(=O)C(CCCCCCCC)CCCCCCCCC)(COC(=O)C(CCCCCCCC)CCCCCCCCC)NCCCCN(C)CCCCO (centres unmarked) [Compound 3428] | – | 83.84 nm | 0.046 | -17.8 mV | 96.6% | 3.23×10^5 RLU | – | 2.04×10^5 p/s/cm^2/sr
